Type in all cases: in vivo
Experiment [1] has as its system Setaria faberi (SETFA). The experiment can be described thus: Pre-emergence herbicidal glasshouse test. To be noted: pre-emergence, 250 g/ha, 13 days after application. As for the experimental part: (§1) Seeds of a variety of test species are shown in standard soil in pots Amaranthus retoflexus (AMARE), Ipomoea hederacea (IPOHE), Solanum nigrum (SOLNI), Lolium perenne (LOLPE). Echinochloa crus-galli (ECHCG), Setaria faberi (SETFA)). After cultivation for one day (pre-emergence) or after 8 days cultivation (post-emergence) under controlled conditions in a glasshouse (at 24/16° C., day/night; 14 hours light; 65% humidity), the plants are sprayed with an aqueous spray solution derived from the formulation of the technical active ingredient in acetone/water (50:50) solution containing 0.5% Tween 20 (polyoxyethylene sorbitan monolaurate, CAS RN 9005-64-5). Compounds are applied at 250 g/ha unless otherwise stated. The test plants are then grown in a glasshouse under controlled conditions in a glasshouse (at 24/16° C., day/night; 14 hours light; 65% humidity) and watered twice daily. After 13 days for pre and post-emergence, the test is evaluated for the percentage damage caused to the plant. The biological activities are shown in the following table on a five-point scale (5=81-100%; 4=61-80%; 3=41-60%; 2=21-40%; 1=0-20%).
(§2) Using the experimental conditions outlined above, a further test is conducted to compare the herbicidal properties of the difluro containing compound (1.014) with a representative compound (C1) referred to in GB901553. The compounds are applied at 1000 g/ha and 500 g/ha. The test is evaluated for the percentage damage caused to the plant (% phytotoxicity).

The subject of experiment [2] is Lolium perenne (LOLPE). The experiment can be described thus: Pre-emergence herbicidal glasshouse test. To be noted: pre-emergence, 250 g/ha, 13 days after application. The method, then:
as §1, §2

The subject of experiment [3] is Ipomoea hederacea (IPOHE). The experiment can be described thus: Pre-emergence herbicidal glasshouse test. To be noted: pre-emergence, 250 g/ha, 13 days after application. As for the experimental part:
as §1, §2

The subject of experiment [4] is Echinochloa crus-galli (ECHCG). The experiment can be described thus: Pre-emergence herbicidal glasshouse test. To be noted: pre-emergence, 250 g/ha, 13 days after application. As for the experimental part: as §1, §2
Experiment [5] deals with Setaria faberi (SETFA). The experiment can be described thus: Post-emergence herbicidal glasshouse test. To be noted: post-emergence, 250 g/ha, 13 days after application. As for the experimental part:
as §1, §2

Experiment [6] deals with Lolium perenne (LOLPE). The experiment can be described thus: Post-emergence herbicidal glasshouse test. To be noted: post-emergence, 250 g/ha, 13 days after application. The method, then: as §1, §2
Experiment [7] relates to Ipomoea hederacea (IPOHE). The experiment can be described thus: Post-emergence herbicidal glasshouse test. To be noted: post-emergence, 250 g/ha, 13 days after application. As for the experimental part: as §1, §2
The subject of experiment [8] is Echinochloa crus-galli (ECHCG). The experiment can be described thus: Post-emergence herbicidal glasshouse test. To be noted: post-emergence, 250 g/ha, 13 days after application. The method, then:
as §1, §2

In experiment [9] the test system is Amaranthus retoflexus (AMARE). The experiment can be described thus: Post-emergence herbicidal glasshouse test. To be noted: post-emergence, 250 g/ha, 13 days after application. The method, then: as §1, §2
Another experiment concerns Solanum nigrum (SOLNI). The experiment can be described thus: Post-emergence herbicidal glasshouse test. To be noted: post-emergence, 250 g/ha, 13 days after application. As for the experimental part:
as §1, §2

The test system of experiment [10] is Amaranthus retoflexus (AMARE). The experiment can be described thus: Pre-emergence herbicidal glasshouse test. To be noted: pre-emergence, 250 g/ha, 13 days after application. As for the experimental part: as §1, §2

Consider 15 compounds from patent publication US12319648B2, “Fluorinated phenylacetic acid derivatives in a weed control method” (SYNGENTA CROP PROTECTION AG, priority 2019, dated 2025).

With `O=C(O)C(F)(F)c1cccc(Cl)c1Cl` [Compound 1.040], the “percentage damage caused to the plant, five-point scale, SETFA” value (“percentage damage caused … SETFA” below) is on record as 1 (1=0-20%) in the experiment on Setaria faberi (SETFA) [1] and 3 (3=41-60%) with Setaria faberi (SETFA) [5]. The “percentage damage caused to the plant, five-point scale, LOLPE” value (“percentage damage caused … LOLPE” below) in the experiment with Lolium perenne (LOLPE) [2] and in the experiment on Lolium perenne (LOLPE) [6] was 1 (1=0-20%) in each case. For the same compound, the “percentage damage caused to the plant, five-point scale, IPOHE” value (“percentage damage caused … IPOHE” for short) in [3] is on record as 5 (5=81-100%); in experiment [7] it was 3 (3=41-60%). Besides, the “percentage damage caused to the plant, five-point scale, ECHCG” value (“percentage damage caused … ECHCG” below) in [4] is listed as 1 (1=0-20%); in [8] it was 2 (2=21-40%). Besides, the “percentage damage caused to the plant, five-point scale, AMARE” value (“percentage damage caused … AMARE” below) in experiment [9] is recorded as 4 (4=61-80%). Further, the “percentage damage caused to the plant, five-point scale, SOLNI” value (shortened to “percentage damage caused … SOLNI”) in the experiment with Solanum nigrum (SOLNI) is recorded as 2 (2=21-40%).
`O=C(O)C(F)(F)c1cccc(Cl)c1C(F)(F)F` [Compound 1.060]: the “percentage damage caused … IPOHE” value in [3] is 3 (3=41-60%); in [7], 5 (5=81-100%). Besides, the “percentage damage caused … ECHCG” value in [4] and in [8] was 1 (1=0-20%) each time. Moreover, the “percentage damage caused … AMARE” value in [10] and in experiment [9] was 5 (5=81-100%) throughout.
For the compound `Cc1c(Cl)cccc1C(F)(F)C(=O)O` [Compound 1.058], the “percentage damage caused … IPOHE” value in [3] and in experiment [7] was 5 (5=81-100%) each time. Also, the “percentage damage caused … ECHCG” value in experiment [4] and in [8] was 3 (3=41-60%) in each case. Besides, the “percentage damage caused … AMARE” value in experiment [10] and in experiment [9] was 5 (5=81-100%) each time.
On to `O=C(O)C(F)(F)c1cccc(Cl)c1Cl` [Compound 1.041], for which the “percentage damage caused … LOLPE” value in the experiment with Lolium perenne (LOLPE) [6] is listed as 4 (4=61-80%). Also, the “percentage damage caused … ECHCG” value in experiment [8] is recorded as 4 (4=61-80%). Besides, in the experiment on Solanum nigrum (SOLNI), the “percentage damage caused … SOLNI” value is 4 (4=61-80%).
With `O=C(O)C(F)(F)c1cccc(Cl)c1Cl` [Compound 1.039], the “percentage damage caused … SETFA” value in the experiment with Setaria faberi (SETFA) [1] is listed as 2 (2=21-40%); in the experiment with Setaria faberi (SETFA) [5], 3 (3=41-60%). For the same compound, the “percentage damage caused … LOLPE” value with Lolium perenne (LOLPE) [2] is given as 3 (3=41-60%); with Lolium perenne (LOLPE) [6] it was 1 (1=0-20%). For the same compound, the “percentage damage caused … IPOHE” value is on record as 5 (5=81-100%) in [3] and 4 (4=61-80%) in [7]. In addition, the results for the “percentage damage caused … ECHCG” value in experiment [4] and in [8] were 1 (1=0-20%) and 2 (2=21-40%), respectively. Moreover, in [9], the “percentage damage caused … AMARE” value was 5 (5=81-100%). The “percentage damage caused … SOLNI” value in the experiment with Solanum nigrum (SOLNI) is listed as 3 (3=41-60%).
`O=C([O-])C(F)(F)c1cccc(Cl)c1Cl.[K+]` [Compound 1.042]: the “percentage damage caused … LOLPE” value in the experiment on Lolium perenne (LOLPE) [2] is given as 2 (2=21-40%); in the experiment with Lolium perenne (LOLPE) [6], 1 (1=0-20%). Besides, the “percentage damage caused … IPOHE” value was 5 (5=81-100%) in experiment [3] and 4 (4=61-80%) in [7]. Besides, the “percentage damage caused … ECHCG” value is on record as 1 (1=0-20%) in experiment [4] and 2 (2=21-40%) in [8]. Besides, in the experiment on Setaria faberi (SETFA) [5], the “percentage damage caused … SETFA” value was 3 (3=41-60%). The “percentage damage caused … AMARE” value in experiment [9] is recorded as 5 (5=81-100%). In the experiment with Solanum nigrum (SOLNI), the “percentage damage caused … SOLNI” value is recorded as 4 (4=61-80%).
Take `O=C(O)C(F)(F)c1cccc(C(F)(F)F)c1Cl` [Compound 1.059]: the “percentage damage caused … IPOHE” value in experiment [3] and in experiment [7] was 5 (5=81-100%) each time. For the same compound, the “percentage damage caused … ECHCG” value is 1 (1=0-20%) in experiment [4] and 3 (3=41-60%) in experiment [8]. For the same compound, the results for the “percentage damage caused … AMARE” value in experiment [10] and in experiment [9] were 1 (1=0-20%) and 5 (5=81-100%), respectively.
Turning to `Cc1cccc(C(F)(F)C(=O)O)c1F.N` [Compound 1.061], the “percentage damage caused … IPOHE” value is given as 1 (1=0-20%) in [3] and 3 (3=41-60%) in [7]. The “percentage damage caused … ECHCG” value in experiment [4] and in experiment [8] was 1 (1=0-20%) throughout. Also, the “percentage damage caused … AMARE” value is recorded as 3 (3=41-60%) in [10] and 1 (1=0-20%) in experiment [9].
In the case of `Cc1c(Cl)ccc(Cl)c1C(F)(F)C(=O)O.N` [Compound 1.084], the “percentage damage caused … IPOHE” value in [3] is 1 (1=0-20%); in [7] it was 4 (4=61-80%). Moreover, the “percentage damage caused … ECHCG” value in experiment [4] and in experiment [8] was 1 (1=0-20%) each time. Also, the “percentage damage caused … AMARE” value in experiment [10] and in experiment [9] was 2 (2=21-40%) in each case.
Turning to `Cc1ccc(Cl)c(Cl)c1C(F)(F)C(=O)O.N` [Compound 1.063], the “percentage damage caused … IPOHE” value in experiment [3] is reported as 1 (1=0-20%); in experiment [7], 3 (3=41-60%). Also, the “percentage damage caused … ECHCG” value in experiment [4] and in experiment [8] was 1 (1=0-20%) each time. Also, the “percentage damage caused … AMARE” value in [10] was 1 (1=0-20%); in [9], 4 (4=61-80%).
Consider `O=C(O)C(F)(F)c1c(Cl)cccc1Cl` [Compound 1.044], for which the “percentage damage caused … IPOHE” value was 3 (3=41-60%) in experiment [3] and 4 (4=61-80%) in [7]. For the same compound, the “percentage damage caused … ECHCG” value in experiment [4] and in experiment [8] was 1 (1=0-20%) throughout. For the same compound, the “percentage damage caused … AMARE” value in experiment [10] is on record as 2 (2=21-40%); in [9], 3 (3=41-60%).
With `Cc1c(F)cccc1C(F)(F)C(=O)O` [Compound 1.075], the “percentage damage caused … IPOHE” value in experiment [3] is on record as 3 (3=41-60%); in experiment [7] it was 4 (4=61-80%). In addition, the “percentage damage caused … ECHCG” value in experiment [4] and in experiment [8] was 1 (1=0-20%) each time. In addition, the “percentage damage caused … AMARE” value in experiment [10] was 3 (3=41-60%); in experiment [9] it was 5 (5=81-100%).
`O=C(O)C(F)(F)c1cccc(Cl)c1Br` [Compound 1.050]: the “percentage damage caused … IPOHE” value in experiment [3] and in experiment [7] was 5 (5=81-100%) in each case. Also, the “percentage damage caused … ECHCG” value in [4] and in experiment [8] was 2 (2=21-40%) in each case. Moreover, the “percentage damage caused … AMARE” value in experiment [10] and in [9] was 5 (5=81-100%) each time.
With `O=C(O)C(F)(F)c1ccc(F)c(Cl)c1F` [Compound 1.051], the “percentage damage caused … IPOHE” value in experiment [3] is on record as 5 (5=81-100%); in [7], 4 (4=61-80%). Besides, the “percentage damage caused … ECHCG” value in [4] and in experiment [8] was 1 (1=0-20%) each time. Moreover, the “percentage damage caused … AMARE” value in [10] is listed as 3 (3=41-60%); in experiment [9] it was 5 (5=81-100%).
Turning to `Cc1cccc(C(F)(F)C(=O)O)c1C(F)(F)F.N` [Compound 1.062], the “percentage damage caused … IPOHE” value in experiment [3] and in [7] was 3 (3=41-60%) throughout. The “percentage damage caused … ECHCG” value in experiment [4] and in experiment [8] was 1 (1=0-20%) each time. Also, the “percentage damage caused … AMARE” value in experiment [10] was 3 (3=41-60%); in experiment [9], 4 (4=61-80%).
